#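 Method: 48-hour compound exposure of cells in 96-well plates, five concentrations, linear interpolation of endpoints. GI50 marks 50% less growth.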 Activity calls are given as the source filed them. Rule as the data show it: active = GI50 up to about 1.1 µM and inactive = higher.
# Columns and labels:
# Experiment in all cases: NCI-60 cell line screen, 48 h
# [1] = test system: OVCAR-4
# [2] = test system: DU-145
# [3] = test system: SW-620
# [4] = test system: MCF7
# [5] = test system: Malme-3M
# [6] = test system: 786-0
# [7] = test system: T47D
# [8] = test system: SF-539
# [9] = test system: NCI/ADR-RES
# [10] = test system: NCI-H226
# [11] = test system: Hs-578T
# [12] = test system: UACC-257
# [13] = test system: HL-60
# [14] = test system: OVCAR-5
# [15] = test system: IGROV-1
# [16] = test system: UO-31
# [17] = test system: EKVX
# [18] = test system: MOLT-4
# [19] = test system: PC-3
# [20] = test system: K562
SMILES,GI50 [1],GI50 [2],GI50 [3],GI50 [4],GI50 [5],GI50 [6],GI50 [7],GI50 [8],GI50 [9],GI50 [10],GI50 [11],GI50 [12],GI50 [13],GI50 [14],GI50 [15],GI50 [16],GI50 [17],GI50 [18],GI50 [19],GI50 [20]
O=[N+]([O-])c1nccn1CCCNc1c2ccccc2[n+]([O-])c2ccccc12,50.2 µM (inactive),> 100 µM (inactive),> 100 µM (inactive),> 100 µM (inactive),> 100 µM (inactive),> 100 µM (inactive),> 100 µM (inactive),> 100 µM (inactive),> 100 µM (inactive),38.6 µM (inactive),> 100 µM (inactive),> 100 µM (inactive),> 100 µM (inactive),> 100 µM (inactive),51.9 µM (inactive),> 100 µM (inactive),> 100 µM (inactive),> 100 µM (inactive),> 100 µM (inactive),> 100 µM (inactive)
CCOc1ccc(C2c3[nH]c4ccccc4c3CCN2C(=O)c2cccs2)cc1 (stereo not given),4.22 µM (inactive),68.9 µM (inactive),21.1 µM (inactive),7.6 µM (inactive),88.5 µM (inactive),9.18 µM (inactive),5.9 µM (inactive),3.51 µM (inactive),6.43 µM (inactive),3.06 µM (inactive),63.1 µM (inactive),17.3 µM (inactive),9.04 µM (inactive),> 100 µM (inactive),10.2 µM (inactive),14.2 µM (inactive),7.35 µM (inactive),2.65 µM (inactive),4.59 µM (inactive),2.34 µM (inactive)
COc1ccc2/c(=C/c3ccc(N(C)C)cc3)c3cc(-c4ccccc4)[n+](C)n3c2c1,0.347 µM (active),0.179 µM (active),0.15 µM (active),0.126 µM (active),0.191 µM (active),0.161 µM (active),0.0805 µM (active),0.495 µM (active),9.66 µM (inactive),0.265 µM (active),0.142 µM (active),0.135 µM (active),0.0218 µM (active),0.52 µM (active),0.112 µM (active),0.735 µM (active),0.817 µM (active),0.18 µM (active),0.09 µM (active),0.057 µM (active)
CC(=O)N(CCc1ccccc1)C(C)(C#N)c1ccccc1 (stereo not given),> 100 µM (inactive),> 100 µM (inactive),> 100 µM (inactive),> 100 µM (inactive),> 100 µM (inactive),> 100 µM (inactive),> 100 µM (inactive),> 100 µM (inactive),> 100 µM (inactive),> 100 µM (inactive),> 100 µM (inactive),> 100 µM (inactive),> 100 µM (inactive),> 100 µM (inactive),> 100 µM (inactive),> 100 µM (inactive),> 100 µM (inactive),> 100 µM (inactive),> 100 µM (inactive),> 100 µM (inactive)
C[C@H](CCC(=O)NCC(=O)O)[C@H]1CC[C@H]2[C@@H]3[C@H](O)C[C@@H]4C[C@H](O)CC[C@]4(C)[C@H]3CC[C@]12C,> 100 µM (inactive),> 100 µM (inactive),> 100 µM (inactive),> 100 µM (inactive),71.6 µM (inactive),> 100 µM (inactive),> 100 µM (inactive),> 100 µM (inactive),> 100 µM (inactive),> 100 µM (inactive),> 100 µM (inactive),> 100 µM (inactive),> 100 µM (inactive),> 100 µM (inactive),> 100 µM (inactive),> 100 µM (inactive),> 100 µM (inactive),> 100 µM (inactive),> 100 µM (inactive),> 100 µM (inactive)
CC1=NN(c2ccc(S(=O)(=O)O)cc2)C(=O)/C1=C/c1ccc(Cl)cc1.c1ccncc1,> 100 µM (inactive),> 100 µM (inactive),> 100 µM (inactive),> 100 µM (inactive),> 100 µM (inactive),> 100 µM (inactive),> 100 µM (inactive),> 100 µM (inactive),> 100 µM (inactive),> 100 µM (inactive),> 100 µM (inactive),> 100 µM (inactive),> 100 µM (inactive),> 100 µM (inactive),> 100 µM (inactive),> 100 µM (inactive),> 100 µM (inactive),> 100 µM (inactive),> 100 µM (inactive),> 100 µM (inactive)
CC(C)=CCC[C@@H](C)C1=C(O)C(=O)C(C)=C(N)C1=O,29.9 µM (inactive),42.7 µM (inactive),43.1 µM (inactive),50.8 µM (inactive),14.1 µM (inactive),33.4 µM (inactive),23.9 µM (inactive),31.6 µM (inactive),3.9 µM (inactive),20.8 µM (inactive),38.9 µM (inactive),38.5 µM (inactive),3.43 µM (inactive),81.5 µM (inactive),7.69 µM (inactive),11.1 µM (inactive),36.1 µM (inactive),6.5 µM (inactive),47.8 µM (inactive),23.2 µM (inactive)
COC12c3ccccc3-c3ccccc3C1[C@H]1C(=O)OC(=O)[C@H]12 (stereo not given in full),> 10 µM (inactive),> 10 µM (inactive),> 10 µM (inactive),> 10 µM (inactive),> 10 µM (inactive),> 10 µM (inactive),> 10 µM (inactive),> 10 µM (inactive),> 10 µM (inactive),> 10 µM (inactive),> 10 µM (inactive),> 10 µM (inactive),> 10 µM (inactive),> 10 µM (inactive),> 10 µM (inactive),> 10 µM (inactive),> 10 µM (inactive),> 10 µM (inactive),> 10 µM (inactive),> 10 µM (inactive)
CC(C)(C)c1ccc(-c2nnc(SCc3ccc(Cl)cc3)n2-c2cccc(C(F)(F)F)c2)cc1,7.8 µM (inactive),> 85.3 µM (inactive),15.9 µM (inactive),5.65 µM (inactive),29.4 µM (inactive),13.9 µM (inactive),5.08 µM (inactive),54.8 µM (inactive),12.4 µM (inactive),19.7 µM (inactive),45.8 µM (inactive),9.95 µM (inactive),0.0867 µM (active),32.8 µM (inactive),26.9 µM (inactive),11.6 µM (inactive),8.51 µM (inactive),3.78 µM (inactive),6.98 µM (inactive),4.25 µM (inactive)
CCOC(=O)C1=C(C)NC(=S)NC1c1cccc(O)c1 (stereo not given) [MONASTROL],66.1 µM (inactive),76.6 µM (inactive),44.3 µM (inactive),30 µM (inactive),60.3 µM (inactive),57.9 µM (inactive),34.9 µM (inactive),44.8 µM (inactive),> 100 µM (inactive),55 µM (inactive),45.7 µM (inactive),62.7 µM (inactive),25.7 µM (inactive),76.6 µM (inactive),51.1 µM (inactive),> 100 µM (inactive),62.7 µM (inactive),33.6 µM (inactive),36.1 µM (inactive),32.7 µM (inactive)
Cn1c2ccc(F)cc2c2ccc3c(c21)C(=O)C=CC3=O,5.14 µM (inactive),22 µM (inactive),2.66 µM (inactive),2.2 µM (inactive),8.71 µM (inactive),3.41 µM (inactive),2.77 µM (inactive),16.6 µM (inactive),20.2 µM (inactive),20.3 µM (inactive),29.9 µM (inactive),9.86 µM (inactive),0.598 µM (active),43.6 µM (inactive),14.6 µM (inactive),7.52 µM (inactive),16 µM (inactive),0.9 µM (active),8.67 µM (inactive),1.63 µM (inactive)
O=C(NCc1cccs1)OC1CC2CCC1C2 (stereo not given),> 100 µM (inactive),> 100 µM (inactive),> 100 µM (inactive),> 100 µM (inactive),> 100 µM (inactive),> 100 µM (inactive),> 100 µM (inactive),> 100 µM (inactive),> 100 µM (inactive),> 100 µM (inactive),81.5 µM (inactive),> 100 µM (inactive),> 100 µM (inactive),> 100 µM (inactive),> 100 µM (inactive),> 100 µM (inactive),> 100 µM (inactive),> 100 µM (inactive),> 100 µM (inactive),> 100 µM (inactive)
Cc1nc2c(C)c3c([nH]c4ccc(Cl)cc43)c(C)c2c(O)c1C,7.24 µM (inactive),5.71 µM (inactive),7.52 µM (inactive),2.2 µM (inactive),8.43 µM (inactive),3.99 µM (inactive),4.66 µM (inactive),6.21 µM (inactive),8.39 µM (inactive),4.82 µM (inactive),15.9 µM (inactive),13.9 µM (inactive),2.24 µM (inactive),6.76 µM (inactive),5.27 µM (inactive),3.66 µM (inactive),22 µM (inactive),1.63 µM (inactive),5.89 µM (inactive),7.5 µM (inactive)

# — ChEMBL document CHEMBL1201862, “PubChem BioAssay data set” (2004)
